The structures appear in SMILES notation.

The source of these data is US10953237B2, “Methods of providing skin care using phototherapy” (InDerm, priority 2015, dated 2021).

The test system of this experiment is human epidermal keratinocytes. Put plainly: Wound repair (scratch wound closure) in keratinocyte culture. The experiment is classed as cell-based. The protocol: The cells were cultured in a 24-well box (20 to 30 000 cells per well). At confluence, a “wound” was made at the center of the well using an “Essen Woundmaker” (Essen Bioscience, Ann Arbor, USA). After rinsing the wells with PBS to remove detached cells, the optional test agent was applied and illumination was started.
Cell migration was followed by two types of instrumentation, (i) videomicroscopy or (ii) Incucyte (Essen Bioscience): whereby a photo from the culture well is recorded every 30 minutes or every hour over a period of 48 hours.
Healing of wounds was studied by dynamic microscopy using a Nikon Eclipse Ti microscope allowing the taking of pictures at intervals of 30 minutes for 24 hours on primary cultures of human fibroblasts and keratinocytes. In this way, it was possible to assess the level of healing.
Incucyte is a device for visualizing and quantifying cell migration in a CO2 incubator at 37° C. The device is used with the Essen Woundmaker. The equipment was calibrated to produce wounds in cell cultures with high reproducibility. The device featured integrated processing software acquisition and image analysis allowing for quantification of the migration rate of cells.
The setup of this experiment was as described in the Materials and Methods Section herein above. […]

Regarding `CCCCCCCCCCCCCCCC(=O)O[C@@H]1C[C@@H](C(=O)O)N(C(=O)CCCCCCCCCCCCCCC)C1` [DPHP, Dipalmitoylhydroxyproline], for the setting “DPHP serum in combination with 3-LED lighting, keratinocytes (FIG. 4)”, the “effect on skin wound repair” value is “positive effect”. Besides, the “time to 45% wound closure” value (serum (0.175 wt. % DPHP) added at 0.05 wt % of medium, with 3 LEDs 520, 660, 780 nm for 15 seconds, instead of 10 hrs) was found to be 6 h.
